These are literature values, as cited in US8759404B2, “Intravenous propofol emulsion compositions having preservative efficacy” (Bharat Serums & Vaccines Ltd., priority 2005, dated 2014).

As to `CCCCCCCCCC(=O)O` [Capric acid, Decanoic acid], the “Oral LD50 in rats” value in the series on rats (oral) was “more than 10,000 mg/kg”.
As to `CCCCCCCCCCCC(=O)OCC(O)CO` (stereo not shown) [Monolaurin, monoglyceryl ester of lauric acid], under “aqueous media”, the “solubility in aqueous media” value is “insoluble”. Moreover, the “solubility in fat solvents” value (chloroform, benzene, ethanol, or acetone) is on record as “highly soluble”. The LD50 result with rats (administered orally) is recorded as “about 53,000 mg/kg body weight”.
